The values that follow come from the supplement of paper PMC12137928.

This experiment deals with HCT116. The conditions noted are these: 72 h. The procedure, abridged: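 IC50 and maximal efficacy were derived from four-parameter Hill curve fits. The underlying CellTiter-Glo luminescence was scaled so that vehicle equals 0% and positive control equals -100%, and was then pattern-corrected. HCT116 cells had been seeded in 1536-well plates at 250 per well.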

Where a name gives a salt, the structure may show the parent alone.

Regarding `Cc1c(C)c2c(c(C)c1OC(=O)CCC(=O)O)CC[C@@](C)(CCC[C@H](C)CCC[C@H](C)CCCC(C)C)O2` [D-alpha-Tocopherol succinate], the IC50 cell viability is > 45.8 µM (ICRF193 0 nM) and > 45.8 µM (ICRF193 200 nM).
`NNc1nncc2ccccc12` [Apresoline]: the IC50 cell viability is > 45.8 µM (ICRF193 0 nM) and > 45.8 µM (ICRF193 200 nM).
Consider `N#Cc1ccc(C(c2ccc(C#N)cc2)n2cncn2)cc1` [Letrozole], for which the IC50 cell viability (ICRF193 0 nM) was > 45.8 µM and the IC50 cell viability (ICRF193 200 nM) was > 45.8 µM.
With `CC(C)OC(=O)OCOP(=O)(CO[C@H](C)Cn1cnc2c(N)ncnc21)OCOC(=O)OC(C)C` [Tenofovir disoproxil fumarate], the IC50 cell viability (ICRF193 0 nM) was > 45.8 µM and the IC50 cell viability (ICRF193 200 nM) was > 45.8 µM.
For `CN(C)C(=O)COC(=O)Cc1ccc(OC(=O)c2ccc(NC(=N)N)cc2)cc1` [Camostat], the IC50 cell viability by setting is: (ICRF193 0 nM) > 45.8 µM; (ICRF193 200 nM) > 45.8 µM.
Turning to `C[C@]12CC[C@@H]3c4ccc(OC(=O)c5ccccc5)cc4CC[C@H]3[C@@H]1CC[C@@H]2O` [ESTRADIOL BENZOATE], the IC50 cell viability is, setting by setting: (ICRF193 0 nM) > 45.8 µM; (ICRF193 200 nM) > 45.8 µM.
`CCCCCCCCCCCCCCCC(=O)OC[C@H](O)[C@H]1OC(=O)C(O)=C1O` [L-Ascorbyl 6-palmitate]: the IC50 cell viability was > 45.8 µM (ICRF193 0 nM) and > 45.8 µM (ICRF193 200 nM).
For `CN(C)CCC(c1ccc(Br)cc1)c1ccccn1` (configuration not stated) [Brompheniramine (maleate)], the IC50 cell viability is > 45.8 µM (ICRF193 0 nM) and > 45.8 µM (ICRF193 200 nM).
For the compound `CC(C(=O)O)c1ccc(C(=O)c2cccs2)cc1` (configuration not stated) [Suprofen], the IC50 cell viability (ICRF193 0 nM) was > 45.8 µM and the IC50 cell viability (ICRF193 200 nM) is > 45.8 µM.
Take `CCCCC(CC)COC(=O)C(C#N)=C(c1ccccc1)c1ccccc1` (configuration not stated) [Octocrylene]: the IC50 cell viability by setting is: (ICRF193 0 nM) > 45.8 µM; (ICRF193 200 nM) > 45.8 µM.
For `CC[N+](C)(CC)CCOC(=O)C1c2ccccc2Oc2ccccc21` [Methantheline bromide], the IC50 cell viability was > 45.8 µM (ICRF193 0 nM) and > 45.8 µM (ICRF193 200 nM).
Regarding `CCOc1c(N2CCOCC2)cnn(C)c1=O` [Emorfazone], the IC50 cell viability (ICRF193 0 nM) was > 45.8 µM and the IC50 cell viability (ICRF193 200 nM) was > 45.8 µM.
Turning to `Cc1c(C)c2c(c(C)c1O)CCC(C)(COc1ccc(CC3SC(=O)NC3=O)cc1)O2` (configuration not stated) [Troglitazone], the IC50 cell viability runs as follows: (ICRF193 0 nM) > 45.8 µM; (ICRF193 200 nM) > 45.8 µM.
Consider `Nc1cc(N2CCCCC2)nc(N)[n+]1[O-]` [Minoxidil], for which the IC50 cell viability is > 45.8 µM (ICRF193 0 nM) and > 45.8 µM (ICRF193 200 nM).
On to `OC[C@H]1O[C@@H](Oc2ccc(O)cc2)[C@H](O)[C@@H](O)[C@@H]1O` [Arbutin], for which the IC50 cell viability reads like this: (ICRF193 0 nM) > 45.8 µM; (ICRF193 200 nM) > 45.8 µM.
`CCN(CC)C(=O)N[C@H]1C[C@@H]2c3cccc4[nH]cc(c34)C[C@H]2N(C)C1` [Terguride]: the IC50 cell viability (ICRF193 0 nM) was > 45.8 µM and the IC50 cell viability (ICRF193 200 nM) was > 45.8 µM.
With `O=C1c2ccccc2C(=O)C1c1ccccc1` [Phenindione], the IC50 cell viability by setting is: (ICRF193 0 nM) > 45.8 µM; (ICRF193 200 nM) > 45.8 µM.
Consider `Cc1ccnc(NS(=O)(=O)c2ccc(N)cc2)n1` [Sulfamerazine], for which the IC50 cell viability reads like this: (ICRF193 0 nM) > 45.8 µM; (ICRF193 200 nM) > 45.8 µM.
`CCn1cc(C(=O)O)c(=O)c2cc(F)c(N3CCNCC3)nc21` [Enoxacin]: the IC50 cell viability is, setting by setting: (ICRF193 0 nM) > 45.8 µM; (ICRF193 200 nM) > 45.8 µM.
As to `C=C[C@H]1CN2CC[C@H]1C[C@H]2[C@H](OC(=O)OCC)c1ccnc2ccc(OC)cc12` [QUININE ETHYL CARBONATE], the IC50 cell viability (ICRF193 0 nM) is > 45.8 µM and the IC50 cell viability (ICRF193 200 nM) was > 45.8 µM.
`COc1cc(N)c(Cl)cc1C(=O)NC1CCN(Cc2ccccc2)CC1` [Clebopride maleate]: the IC50 cell viability by setting is: (ICRF193 0 nM) > 45.8 µM; (ICRF193 200 nM) > 45.8 µM.
Turning to `CCC1(c2cccc(O)c2)CCCCN(C)C1` (configuration not stated) [Meptazinol hydrochloride], the IC50 cell viability (ICRF193 0 nM) is > 45.8 µM and the IC50 cell viability (ICRF193 200 nM) is > 45.8 µM.
In the case of `Cn1cc(C2=C(c3cn(C4CCN(Cc5ccccn5)CC4)c4ccccc34)C(=O)NC2=O)c2ccccc21` [Enzastaurin], the IC50 cell viability reads like this: (ICRF193 0 nM) > 45.8 µM; (ICRF193 200 nM) > 45.8 µM.
Take `Clc1cccc(C(c2ccc3[nH]cnc3c2)n2ccnc2)c1` (configuration not stated) [Liarozole]: the IC50 cell viability is, setting by setting: (ICRF193 0 nM) > 45.8 µM; (ICRF193 200 nM) > 45.8 µM.
Consider `CCC1(c2ccccc2)C(=O)NCNC1=O` [Primidone], for which the IC50 cell viability (ICRF193 0 nM) was > 45.8 µM and the IC50 cell viability (ICRF193 200 nM) was > 45.8 µM.
With `FC(F)(F)c1cccc(C2=CCN(CCc3ccc4ccccc4c3)CC2)c1` [Xaliproden hydrochloride], the IC50 cell viability is > 45.8 µM (ICRF193 0 nM) and > 45.8 µM (ICRF193 200 nM).
On to `O=C1c2c(O)cccc2C([C@@H]2O[C@H](CO)[C@@H](O)[C@H](O)[C@H]2O)c2cc(CO)cc(O)c21` (some centres not stated) [ALOIN], for which the IC50 cell viability was > 45.8 µM (ICRF193 0 nM) and > 45.8 µM (ICRF193 200 nM).
`NC1CCN(c2nc3c(cc2F)c(=O)c(C(=O)O)cn3-c2ccc(F)cc2F)C1` (configuration not stated) [Tosufloxacin toluenesulfonic acid]: the IC50 cell viability by setting is: (ICRF193 0 nM) > 45.8 µM; (ICRF193 200 nM) > 45.8 µM.
Take `Cc1ccc(Cl)c(Nc2ccccc2C(=O)O)c1Cl` [Meclofenamate sodium]: the IC50 cell viability was > 45.8 µM (ICRF193 0 nM) and > 45.8 µM (ICRF193 200 nM).
In the case of `O=C(O)C(O)C(O)C(=O)O` (stereo not drawn) [D(-)-Tartaric acid], the IC50 cell viability (ICRF193 0 nM) is > 45.8 µM and the IC50 cell viability (ICRF193 200 nM) is > 45.8 µM.
`NCCCC(N)(C(=O)O)C(F)F` (configuration not stated) [Eflornithine Hydrochloride]: the IC50 cell viability was > 45.8 µM (ICRF193 0 nM) and > 45.8 µM (ICRF193 200 nM).
Consider `CC1=C(C(=O)O)N2C(=O)[C@@H](NC(=O)[C@H](N)c3ccc(O)cc3)[C@H]2SC1` [Cefadroxil], for which the IC50 cell viability (ICRF193 0 nM) was > 45.8 µM and the IC50 cell viability (ICRF193 200 nM) is > 45.8 µM.
As for `CC(C)(CO)[C@@H](O)C(=O)NCCC(=O)NCCSSCCNC(=O)CCNC(=O)[C@H](O)C(C)(C)CO` [D-Pantethine], the IC50 cell viability was > 45.8 µM (ICRF193 0 nM) and > 45.8 µM (ICRF193 200 nM).
As for `CCCN1CC(NS(=O)(=O)N(CC)CC)CC2Cc3c(O)cccc3CC21` (configuration not stated) [Quinagolide (hydrochloride)], the IC50 cell viability was > 45.8 µM (ICRF193 0 nM) and > 45.8 µM (ICRF193 200 nM).
For the compound `COc1cc(NS(=O)(=O)c2ccc(N)cc2)nc(C)n1` [Sulfamethomidine], the IC50 cell viability (ICRF193 0 nM) was > 45.8 µM and the IC50 cell viability (ICRF193 200 nM) was > 45.8 µM.
Regarding `Cc1c(C(N)=O)cc([N+](=O)[O-])cc1[N+](=O)[O-]` [Zoalene], the IC50 cell viability is, setting by setting: (ICRF193 0 nM) > 45.8 µM; (ICRF193 200 nM) > 45.8 µM.
Take `NCCCC(O)(P(=O)(O)O)P(=O)(O)O` [ALENDRONATE SODIUM]: the IC50 cell viability was > 45.8 µM (ICRF193 0 nM) and > 45.8 µM (ICRF193 200 nM).
For the compound `CC(Oc1c(Cl)cccc1Cl)C1=NCCN1` (configuration not stated) [Lofexidine], the IC50 cell viability by setting is: (ICRF193 0 nM) > 45.8 µM; (ICRF193 200 nM) > 45.8 µM.
With `CC12CCC(CC1)C(C)(C)O2` [1,8-Cineol], the IC50 cell viability was > 45.8 µM (ICRF193 0 nM) and > 45.8 µM (ICRF193 200 nM).
For `Cc1ncc(COP(=O)(O)O)c(CN)c1O` [Pyridoxamine phosphate], the IC50 cell viability is > 45.8 µM (ICRF193 0 nM) and > 45.8 µM (ICRF193 200 nM).
Regarding `C[N+](C)(C)CC(=O)O` [Betaine], the IC50 cell viability was > 45.8 µM (ICRF193 0 nM) and > 45.8 µM (ICRF193 200 nM).
